Measurements from patent US20120093875A1, “AMINOCYCLITOL COMPOUNDS, PROCESS FOR OBTAINING THEM AND USES” (priority 2009, published 2012).

Experiments:
[1] = test system: mouse iNKT cells; test: Mouse iNKT cells expansion in vitro in spleen cell cultures (flow cytometry, TCR/NK1.1); format: cell-based
Procedure: The compounds were assayed at a final concentration of 1 μg/mL in complete medium with 1% of methanol (MeOH), while the αGalCer (αGC) was used at 0.2 μg/mL. The cell cultures were labeled with anti-NK1-PE and anti-TCR-FITC specific antibodies. The percentages of NKT cells (double positive cells) were calculated within the population of electronically selected T cells.
First, the ability to induce the specific proliferation of mouse iNKT was determined by culture experiments in vitro. For that, spleen cells derived from female B57Bl/6 mice between 10 and 20 weeks were isolated and the red blood cells were removed by hypotonic lysis. The spleen cells are distributed in 96 U-well plates, between 100,000 and 500,000 cells per well, and incubated in the presence of each of the compounds 1a, 1b, 2b, 3a, 3b and 4b at a final concentration of 1 μg/mL in RPMI-1640 growth medium, 10% fetal serum, […], 1% methanol. […] The culture was analyzed at day 5 or 6 by flow cytometry, using TCR and NK1.1 specific antibodies. In the presence of the control αGalCer:
(§1) Mouse C57BL/6 spleen cells are obtained by isolation of the spleen of female mice from 8 to 12 weeks of age, according to protocols approved by the Animal and Human Research Ethics Committee of the Autonomous University of Barcelona. The spleens are disaggregated with the plunger of a syringe in […] in a laminar flow hood, removing the red blood cells with lysis buffer (Sigma-Aldrich). 5×10^5 cells are placed in the wells of 96 U-well plates, and incubated with 100 ng/mL of α-GalCer, OCH, or 1 μg/mL of the compounds 1a, 1b, 2b, 3a, 3b, and 4b in RPMI-1640 medium supplemented with 10% fetal calf serum (FCS) (Labclinics), 50 μM 2-mercaptoethanol, 2 mM L-glutamine and 1% methanol (non-toxic concentration for the cells), and grown at 37° C. in a 5% CO2 humidified atmosphere. 25 U/mL of recombinant human interleukin 2 are added at day 2 of culture.
The spleen cells cultures grown in the indicated conditions are analyzed by flow cytometry in a FACS Calibur (Beckton Dickinson Bioscience) for quantifying the levels of proliferation of the iNKTs after incubation with the compounds 1a, 1b, 2b, 3a, 3b, and 4b. The stimulated spleen cultures are washed and preincubated with 50 μl of staining medium (PBS with 2% FCS) with anti-CD16 (clone 2.4G2) for 20 min in ice. Subsequently the cells are washed and resuspended in staining medium with mouse anti-TCR antibody conjugated to fluorescein isothiocyanate (FITC) (clone H57-597, BD-Pharmingen) and anti-NK1.1 conjugated to avidin (clone PK-136, BD-Pharmingen) for 30 min in ice. […] The samples are analyzed in the flow cytometer (FACSCalibur) and the data are processed using the program CellQuest (BD Bioscience).

[2] = test system: IFNγ production by iNKT cells; test: IFNγ production in mouse spleen cell cultures, dose-response (ELISA); format: cell-based; conditions: dose-response (FIG. 3a)
Description: (§2) Quantifying of the production of IFNγ (FIG. 3A) and IL-4 (FIG. 3B) after the stimulation in vitro of cultures of mouse spleen cells containing lipidic agonists of iNKT cells in a dose-response assay.
(§3) The CD1d glycolipidic ligands induce a deviation in the production of cytokines by iNKT cells to Th1 or Th2, depending on its ability to be presented by CD1d, and its structural characteristics recognized by the TCR. For quantifying more precisely the immunostimulating ability of the compound 4b and determining if it induces a deviation in the iNKT response, its ability to induce the production of IFNγ and IL-4 is titrated in the cell cultures using different concentrations, and comparing the same with the two prototypical ligands, αGalCer and OCH (dissolved in MeOH), that have been described as inducers of a Th1 and Th2 response, respectively.
as §1
(§4) For the determinations of IL-4 and IFNγ, culture supernatants are taken at day 4 or day 7, and stored at −70° C. or used immediately in ELISA assays (eBioscience) for quantifying the cytokines, following the manufacturer's instructions. […] The statistical significance of the results is analyzed using a t-Student test, considering significant differences with p<0.01. […]

[3] = test system: IL-4 production by iNKT cells; test: IL-4 production in mouse spleen cell cultures, dose-response (ELISA); format: cell-based; conditions: dose-response (FIG. 3b)
Description: as §2
as §3, with “respectively. […]” for “respectively.”
as §4

[4] = test system: iNKT cells; test: Th1/Th2 deviation of the iNKT response (IFNγ versus IL-4 production); format: cell-based, mouse; conditions: for type of cytokine response (Th1/Th2 profile): IL-4 versus IFNγ induction in mouse spleen cell cultures; for IFNγ/IL-4 ratio: cytokines in mouse spleen cell culture supernatants (ELISA)
Description: as §3, §1
For the determinations of IL-4 and IFNγ, culture supernatants are taken at day 4 or day 7, and stored at −70° C. or used immediately in ELISA assays (eBioscience) for quantifying the cytokines, following the manufacturer's instructions. Standard curves are generated with the recombinant cytokines included in the kit. The statistical significance of the results is analyzed using a t-Student test, considering significant differences with p<0.01. The compounds 1a, 1b, 2b, 3a, 3b, and 4b are resuspended in 100% methanol or 100% dimethyl sulfoxide at a concentration of 1 mg/mL, and a 1/10 use dilution in PBS is prepared, with a final concentration of 100 μg/mL. The compounds are heated at 56° C. for 10-30 min and sonicated, before being diluted in complete growth medium, with a final concentration of 1% vehicle in the cellular assay.

[5] = compound 1 μg/mL, 1% methanol, IL-2 at day 2, analysed day 5 or 6

CCCCCCCCCCCCCCCCCCCCCCCCCC(=O)N[C@@H](CNC1[C@H](O)[C@H](O)C(O)[C@H](O)[C@H]1O)[C@H](O)[C@H](O)CCCCCCCCCCCCCC (some centres unmarked) [Compound 3a]
expansion of iNKTs [1, 5]: approximately 2 times

CCCCCCCCCCCCCC[C@@H](O)[C@@H](O)[C@H](CNC1[C@H](O)[C@H](O)C(O)[C@H](O)[C@H]1O)NC(=O)CCCCCCC (some centres unmarked) [Compound 3b]
expansion of iNKTs [1, 5]: approximately 2 times

CCCCCCCCCCCCCCCCCCCCCCCCCC(=O)N[C@@H](CN[C@H]1C[C@H](O)[C@@H](O)[C@H](O)[C@H]1O)[C@H](O)[C@H](O)CCCCCCCCCCCCCC [Compound 4b, (2S,3S,4R)-2-hexacosanamide-1-(1′S,2′S,3′R,4′R,5′S)-2,3,4,5,-tetrahydroxycyclohexylaminooctadecane-3,4-diol]
NKT cells as percentage of the T cells after incubation ([1]; compound 1 μg/mL, increase from 1.2% baseline, day 5 or 6 (FIG. 1)): 6.2% | concentration at which production of IFNγ is induced [2]: 333 ng/mL | concentration at which the maximal IFNγ response plateau is reached [2]: 1 µg/mL | magnitude of the maximal IFNγ response compared with α-GalCer [2]: lower magnitude | concentration at which induction of IL-4 is maintained with high efficiency [3]: 100 ng/mL | concentration at which induction of IL-4 is still significant [3]: 33 ng/mL | type of cytokine response (Th1/Th2 profile) [4]: preferably Th2-type response | IFNγ/IL-4 ratio [4]: 2 | response compared with the Th2 response prototype OCH ([4]; mouse spleen cell cultures, dose-response): lower response

CCCCCCCCCCCCCCCCCCCCCCCCCC(=O)N[C@@H](CO[C@H]1O[C@H](CO)[C@H](O)[C@H](O)[C@H]1O)[C@H](O)[C@H](O)CCCCCCCCCCCCCC [αGalCer, α-galactosylceramide, reference compound]
expansion of the population of NKT cells over the baseline conditions ([1]; αGalCer control (0.2 μg/mL per FIG. 1), 1% methanol, IL-2 at day 2, analysed day 5 or 6): more than 5 times | type of cytokine response (Th1/Th2 profile) [4]: high Th1 profile | IFNγ/IL-4 ratio [4]: 10
